Measurements as given in patent publication EP2119770B1, “Production of alpha-oxyfunctionalized carbonyl compounds” (priority 2008, dated 2009).

What was measured:
Gox2107 [1] = molecular target: T1, Gox2107 (Gluconobacter oxydans, UniProt Q5FP53); assay: Enzyme activity assay (rate of NAD(P)H decrease at 340 nm), Gox2107; type: biochemical
Procedure: (§1) Measurment of enzyme activity: NADPH-dependent alpha-ketocarbonyl reductases were assayed by a routine method used for NAD(P)-linked enzymes by recording the rate of decrease of NADPH at 340 nm (ε = 6.22 mM^-1 x cm^-1)) with substrates at 30 °C. The reaction mixture (1 ml) for reduction of alpha-ketocarbonyl substrates contained 10 mM substrate, 40 mM potassium phosphate buffer pH 7.0, 0.025 mM NAD(P)H , and the enzyme. Reactions were induced by addition of enzyme or substrate. One unit of enzyme activity was defined as the amount of enzyme catalyzing the conversion of 1 µmol of pyridine nucleotide per min at 30 °C.
(§2) NADPH-dependent α-ketocarbonyl reductases were assayed by a routine method used for NAD(P)-linked enzymes by recording the rate of decrease of NADPH at 340 nm (ε = 6.22 mM^-1.cm^-1) with substrates at 30 °C. The reaction mixture (1 ml) for reduction of alpha-ketocarbonyl substrates contained 10 mM substrate, 40 mM potassium phosphate buffer pH 7.0, 0.025 mM NADPH , and the enzyme. Reactions were induced by addition of enzyme or substrate. One unit of enzyme activity was defined as the amount of enzyme catalyzing the conversion of 1 µmol of pyridine nucleotide per min at 30 °C.
(§3) For each enzyme (Gox0313, Gox0502, Gox0644, Gox0646, Gox1615, Gox2107, and Gox2684 respectively), fresh enzyme preparations were used to validate the substrate spectrum and the kinetic activity. […] Purified NAD(P)-dependent oxidoreductases were assayed at 30 °C by a routine method used for NAD(P)-linked enzymes by recording the rate of decrease of NAD(P)H at 340 nm (ε = […]) with substrates capable of reduction reactions. The standard reaction mixture (1 ml) for the reduction reactions of substrates contained 10 mM substrate, 40 mM potassium phosphate buffer (K-phosphate buffer) pH 7.0, 0.05 mM NAD(P)H, and the enzyme unless otherwise noted. Reactions were induced by addition of enzyme or substrate. One unit of enzyme activity was defined as the amount of enzyme catalyzing the conversion of 1 µmol of pyridine nucleotide per min at 30 °C. Measurement of the protein content was performed by the method of Bradford in Anal. Biochem. 72:248-254 (1976). Table 3: Summary of enzymatic activities with α-diketones, α-ketoaldehydes and /or α-ketoesters

Gox1615 = molecular target: T2, Gox1615 (Gluconobacter oxydans, UniProt Q5FQJ0); assay: Enzyme activity assay (rate of NAD(P)H decrease at 340 nm), Gox1615; type: biochemical; settings: Tab. 5, Gox1615; cofactor NADPH; 10 mM substrate, pH 7.0, 30 °C
T2 sequence (Q5FQJ0 1-332): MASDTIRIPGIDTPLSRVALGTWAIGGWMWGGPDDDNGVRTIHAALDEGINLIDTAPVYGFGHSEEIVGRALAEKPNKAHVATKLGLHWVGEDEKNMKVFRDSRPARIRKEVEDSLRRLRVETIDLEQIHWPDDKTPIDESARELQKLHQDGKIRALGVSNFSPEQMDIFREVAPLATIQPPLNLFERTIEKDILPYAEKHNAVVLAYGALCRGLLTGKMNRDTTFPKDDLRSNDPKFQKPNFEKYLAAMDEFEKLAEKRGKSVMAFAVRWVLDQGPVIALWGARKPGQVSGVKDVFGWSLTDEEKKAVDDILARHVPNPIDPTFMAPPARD
Procedure: as §1, §2, §3

Gox2684 = molecular target: T3, Gox2684 (Gluconobacter oxydans, UniProt Q5HXK5); assay: Enzyme activity assay (rate of NAD(P)H decrease at 340 nm), Gox2684; type: biochemical; settings: Tab. 8, GOX2684; cofactor NADPH; 10 mM substrate, pH 7.0, 30 °C
T3 sequence (Q5HXK5 1-357): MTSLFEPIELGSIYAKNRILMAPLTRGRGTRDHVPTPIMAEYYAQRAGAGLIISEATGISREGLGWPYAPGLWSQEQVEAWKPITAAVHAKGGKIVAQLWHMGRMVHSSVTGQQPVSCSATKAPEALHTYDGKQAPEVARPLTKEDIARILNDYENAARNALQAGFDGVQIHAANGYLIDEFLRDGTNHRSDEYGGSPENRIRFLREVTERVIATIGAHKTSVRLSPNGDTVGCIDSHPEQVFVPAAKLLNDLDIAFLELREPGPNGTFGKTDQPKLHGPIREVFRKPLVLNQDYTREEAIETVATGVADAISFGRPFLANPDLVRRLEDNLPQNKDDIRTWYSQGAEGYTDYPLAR
Procedure: as §1, §2, §3

Gox0502 [2] = molecular target: T4, Gox0502 (Gluconobacter oxydans, UniProt Q5FTL6); assay: Enzyme kinetics (Lineweaver-Burk plots), Gox0502; settings: NADPH-dependent reduction
T4 sequence (Q5FTL6 1-361): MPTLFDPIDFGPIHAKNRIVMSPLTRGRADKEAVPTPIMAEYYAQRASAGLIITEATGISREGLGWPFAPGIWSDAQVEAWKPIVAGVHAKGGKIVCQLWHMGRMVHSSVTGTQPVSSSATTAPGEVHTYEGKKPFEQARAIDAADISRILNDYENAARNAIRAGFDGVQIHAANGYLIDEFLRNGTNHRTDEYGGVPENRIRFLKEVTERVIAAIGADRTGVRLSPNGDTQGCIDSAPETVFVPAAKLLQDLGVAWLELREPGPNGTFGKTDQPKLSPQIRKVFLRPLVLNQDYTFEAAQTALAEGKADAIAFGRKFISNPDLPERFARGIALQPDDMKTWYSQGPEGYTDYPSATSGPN

Gox0313 = molecular target: T5, Gox0313 (Gluconobacter oxydans, UniProt Q5FU50); assay: Enzyme activity assay (rate of NAD(P)H decrease at 340 nm), Gox0313; type: biochemical; settings: Tab. 6, Gox0313; substrate reduction, cofactor NADH; 10 mM substrate, pH 7.0, 30 °C
T5 sequence (Q5FU50 1-343): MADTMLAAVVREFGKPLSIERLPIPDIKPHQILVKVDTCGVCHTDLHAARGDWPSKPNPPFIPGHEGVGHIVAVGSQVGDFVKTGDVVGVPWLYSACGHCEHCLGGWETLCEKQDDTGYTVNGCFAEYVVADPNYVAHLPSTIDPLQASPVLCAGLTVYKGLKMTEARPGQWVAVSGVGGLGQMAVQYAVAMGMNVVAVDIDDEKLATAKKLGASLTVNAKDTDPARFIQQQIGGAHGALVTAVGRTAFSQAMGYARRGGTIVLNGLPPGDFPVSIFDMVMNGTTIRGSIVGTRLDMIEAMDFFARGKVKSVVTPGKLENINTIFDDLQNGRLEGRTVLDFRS
Procedure: as §1, §2, §3

Gox2107 [3] = molecular target: T1, Gox2107; assay: Enzyme kinetics (Lineweaver-Burk plots), Gox2107; type: biochemical; settings: NADPH-dependent reduction
Procedure: Determination of pH and temperature optima and enzyme kinetics: The optimum pH for enzyme activities was determined by a modified method of Salusjärvi, T. et al., Appl. Microbiol. Biotechnol. 65:306-314 (2004) using the following buffer system (50 mM final concentration each): sodium acetate pH 4.5 - 6.5, potassium phosphate pH 6.5 - 8.0, Tris-HCl pH 8.0 - 10. Temperature optima for the biocatalysts were determined under standard reaction conditions at temperatures ranging from 20 - 80 °C. The Michaelis constant (Km) for the proteins was determined from purified enzyme by Lineweaver-Burk plots. Assays were performed at optimum pH for each enzyme and at 30 °C using the top substrate and a targeted substrate. The Km for each substrate was calculated using concentrations of 0.0025 to 10 mM, and the Km NAD(P)H and NAD(P) was calculated using concentrations of 0.01 to 0.5 mM
The Michaelis constants were determined from purified enzyme by Lineweaver-Burk plots. The Km and Vmax values for the substrates were calculated using concentrations of 0.025 to 10 mM, The optimal pH values and temperatures for enzyme activities are also shown in Tab. 11. Tab. 11: Summary of kinetic parameters

Gox0502 [4] = molecular target: T4, Gox0502; assay: Enzyme activity assay (rate of NAD(P)H decrease at 340 nm), Gox0502; type: biochemical; design: Strep-tag II (N); made in house; host or cells: E. coli BL21 or E. coli DH5α (pASK-IBA5); settings: Tab. 7, Gox0502; cofactor NADPH; 10 mM substrate, pH 7.0, 30 °C
Procedure: as §1, §2, §3

Gox1122 = molecular target: T6, Gox1122 (Gluconobacter oxydans, UniProt Q5FRV6); settings: using NADPH, pH range of 4-10
T6 sequence (Q5FRV6 1-463): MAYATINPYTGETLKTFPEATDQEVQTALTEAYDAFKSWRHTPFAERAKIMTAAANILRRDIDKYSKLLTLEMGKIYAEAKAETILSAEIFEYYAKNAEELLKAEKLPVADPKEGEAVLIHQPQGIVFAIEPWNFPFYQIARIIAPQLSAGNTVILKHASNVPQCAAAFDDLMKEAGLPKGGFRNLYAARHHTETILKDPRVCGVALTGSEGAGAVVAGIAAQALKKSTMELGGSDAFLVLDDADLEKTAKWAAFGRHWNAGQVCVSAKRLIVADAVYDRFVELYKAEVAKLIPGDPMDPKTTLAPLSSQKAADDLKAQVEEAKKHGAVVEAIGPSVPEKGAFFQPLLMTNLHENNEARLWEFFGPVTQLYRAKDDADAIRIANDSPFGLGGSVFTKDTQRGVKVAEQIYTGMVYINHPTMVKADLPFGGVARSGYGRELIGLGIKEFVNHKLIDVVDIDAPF
Source text: The enzyme is used in a combined enzymatic reaction between the NADPH-dependent reductases (see above) that form α-hydroxy carbonyl compounds.

| Compound | activities (Gox2107 [1]; Gox2107, reduction with NADPH) | Specific Activity (Gox2107 [1]; Tab. 7, Gox2107, cofactor NADPH, 10 mM substrate, pH 7.0, 30 °C) | Specific Activity (Gox1615) | Specific Activities (Gox2684) | Vmax (Gox0502 [2]) | Specific Activity (Gox0313) | Vmax (Gox2107 [3]) | Specific Activity (Gox0502 [4]) | reverse reduction reaction (result in words) (Gox1122) |
| --- | --- | --- | --- | --- | --- | --- | --- | --- | --- |
| C=CC(C)=O [3-buten-2-one] | 119 µmol/mg/min | 120 U/mg | 0.7 U/mg | 8.8 U/mg | 21 U/mg protein | 1.9 U/mg | 119 U/mg protein | 21 U/mg |  |
| CC(=O)O [acetic acid] |  |  |  |  |  |  |  |  | No reverse reduction reaction |
